Experiments:
Format in all cases: cell-based, human
WNT-TCF targets [1] = experiment: RT-qPCR gene expression in U251 glioblastoma cells; settings: 16h, batch 3, vs DMSO=1
Description: (§1) RT-qPCR was performed as in Melotti et al. (2014, supra) using BioRad equipment and reagents. Cells cultured in nitro were treated with the desired concentration of drug in DMEM-F12 and reduced serum (2.5% FBS) for 16h, unless otherwise noted, and collected in Trizol (Sigma) before total RNA extraction and cDNA synthesis. Primers were as in Table 1. HPRT (gene encoding Hypoxanthine phosphoribosyltransferase 1) and βACTIN were used as housekeeping controls for normalization.
(§2) Primary colon cells CC14, CC36 and mCC11, colon cancer cell lines DLD1, HT29, Ls174T, melanoma cell line MeWo, glioblastoma cell lines U87 and U251, and the lung cancer cell line H358 were cultured in DMEM-F12 with 10% FBS under standard in nitro conditions.

WNT-TCF targets [2] = experiment: RT-qPCR gene expression in U87 glioblastoma cells; settings: 16h, batch 3, vs DMSO=1
Description: as §1, §2

Ls174T cells = experiment: Clonal spheroid assay, Ls174T; settings: Homo sapiens, LS174T, 16 h, read-out: IC50, number of stem cell-derived spheroids
Description: (§3) Cells were treated with different concentrations of compounds for 16h in 2D adherent culture, washed, harvested and plated in suspension with serum-free DMEM-F12 media with B27 supplement (1:50 dilution) at 1 cell/well in 96-well format in triplicates. Plated cells were monitored to ensure the presence of single cells in each well and spheroids counted and photographed after 10 days for each round.
(§4) To directly test for a long-lasting repression of WNT-TCF targets by CAP2 clonogenic properties of cancer stem cells were tested. DLD1 and LS174T cells were first treated with CAP2 in 2D culture in vitro followed by removal of the drug, washing with PBS, and plating under non-adherent 3D conditions for clonal spheroid growth in the absence of the drug. After primary spheroid growth, the spheroids were dissociated and replated as single cells for secondary and subsequent clonogenic spheroid formation, also in the absence of the compound of the invention. As negative control DMSO-treatment was used.

WNT-TCF targets [3] = experiment: RT-qPCR gene expression in HT29 cells; settings: 16h, batch 3, vs DMSO=1
Description: as §1, §2

WNT-TCF targets [4] = experiment: RT-qPCR in cells dissociated from DLD1 xenograft tumors, treated in vitro; settings: 16h, vs DMSO
Description: as §1
Four DLD1 regressed tumors were monitored after cessation of CAP2 treatment to determine recurrence after drug withdrawal. […] Tumor regrowth, however, could be due in principle to insufficient drug dosage or to the development of drug resistance. To test these possibilities the recurrent tumor was thus excised and the cells plated in vitro to test for the possible development of CAP2 resistance. One control in vivo cyclodextrin-treated tumor taken before reaching the legal (at around 21 day) limit was similarly processed to serve as control. […] The levels of WNT-TCF targets were generally lower in cells derived from tumors that were exposed in vivo to CAP2 in comparison to those in cells from tumors that were not treated with CAP2 (Figure 10). […] This consistent difference in the levels of several WNT-TCF targets raised the possibility that whereas tumor recurrence might be due to incomplete initial dosage, the recurring tumor harbored the memory of previous CAP2 treatment.

WNT-TCF targets [5] = experiment: RT-qPCR gene expression in CC14 primary colon cancer cells; design: cMYC expression: scale not given here
Description: as §1
Primary colon cells CC14 were cultured in DMEM-F12 with 10% FBS under standard in vitro conditions.
as §2

DLD1 cells = experiment: Clonal spheroid assay, DLD1; settings: Homo sapiens, DLD-1, 16 h, read-out: IC50, number of stem cell-derived spheroids
Description: as §3, §4

WNT-TCF targets [6] = experiment: Epistatic rescue with TCF^VP16, DLD1; settings: CAP2 5µM, 16h
Description: Lentivectors expressing a TCF4^VP16 protein in a vector independently expressing GFP, or vector alone, plus reporter plasmids were transfected into cells. 72h after transfection cells were visually checked for expression of GFP. Independent batches of cells with >80% GFP expression were chosen for further experimentation and treated with or without compounds in DMEM-F12 (with 2.5% FBS) for 16h and collected in Trizol.
If the effects of CAP2 on WNT-TCF targets were specific, an activated form of TCF should rescue the repression since CAP2 is likely to act downstream of the APC destruction complex since it was found using an N'Δ form of βCATENIN that is APC insensitive. To activate this last step of canonical WNT signaling, a fusion between TCF and the potent transactivation domain of the viral VP16 protein, TCF^VP16 (Melotti et al., 2014, supra), was used to directly and positively regulate TCF targets. […] Rescue of LGR5, cMYC and ASCL2 repression by CAP2 (at 5µM) was also observed although there was variability between the cell types, similarly to the repression of CDKN1A (Table 8), although in all cases it reversed its enhancement by CAP2 treatment (Table 8).

[7] = DLD1 CAP2-treated tumor dissociated re-treated in vitro, 2.5µM
[8] = DLD1 CAP2-treated tumor dissociated re-treated in vitro, 5µM
[9] = DLD1 control tumor dissociated treated in vitro, 2.5µM
[10] = DLD1 control tumor dissociated treated in vitro, 5µM
[11] = CC14, 1.25µM, 16h, batch 3, vs DMSO=1
[12] = CC14, 2.5µM, 16h, batch 3, vs DMSO=1
[13] = CC14, 5µM, 16h, batch 3, vs DMSO=1
[14] = CC14, 10µM, 16h, batch 3, vs DMSO=1

CC1=C(C)C(=O)O[C@@H]([C@](C)(O)[C@]2(O)CC[C@@]3(O)[C@@H]4CC=C5CC=CC(=O)[C@]5(C)[C@H]4CC[C@]23C)C1 [CAP2]
AXIN2 expression (WNT-TCF targets [1]; 1.25µM): 0.9
LGR5 expression (WNT-TCF targets [1]; 1.25µM): 0.5
AXIN2 expression (WNT-TCF targets [1]; 2.5µM): 0.8
LGR5 expression (WNT-TCF targets [1]; 2.5µM): 0.3
AXIN2 expression (WNT-TCF targets [1]; 5µM): 0.7
LGR5 expression (WNT-TCF targets [1]; 5µM): 0.2
AXIN2 expression (WNT-TCF targets [1]; 10µM): 0.5
LGR5 expression (WNT-TCF targets [1]; 10µM): 0.2
AXIN2 expression (WNT-TCF targets [2]; 1.25µM): 0.7
LGR5 expression (WNT-TCF targets [2]; 1.25µM): 0.3
AXIN2 expression (WNT-TCF targets [2]; 2.5µM): 0.5
LGR5 expression (WNT-TCF targets [2]; 2.5µM): 0.3
AXIN2 expression (WNT-TCF targets [2]; 5µM): 0.5
LGR5 expression (WNT-TCF targets [2]; 5µM): 0.2
AXIN2 expression (WNT-TCF targets [2]; 10µM): 0.6
LGR5 expression (WNT-TCF targets [2]; 10µM): 0.2
IC50 (Ls174T cells): < 1.25 µM
AXIN2 expression (WNT-TCF targets [3]; 1.25µM): 0.8
LGR5 expression (WNT-TCF targets [3]; 1.25µM): 0.8
AXIN2 expression (WNT-TCF targets [3]; 2.5µM): 0.9
LGR5 expression (WNT-TCF targets [3]; 2.5µM): 0.7
AXIN2 expression (WNT-TCF targets [3]; 5µM): 0.8
LGR5 expression (WNT-TCF targets [3]; 5µM): 0.3
AXIN2 expression (WNT-TCF targets [3]; 10µM): 0.4
LGR5 expression (WNT-TCF targets [3]; 10µM): 0.1
ASCL2 expression (WNT-TCF targets [4]; [7]): 0.05
AXIN2 expression (WNT-TCF targets [4]; [7]): 0.4
LEF1 expression (WNT-TCF targets [4]; [7]): 0.4
LGR5 expression (WNT-TCF targets [4]; [7]): 0.6
cMYC expression (WNT-TCF targets [4]; [7]): 0.2
ASCL2 expression (WNT-TCF targets [4]; [8]): 0.1
AXIN2 expression (WNT-TCF targets [4]; [8]): 0.3
LEF1 expression (WNT-TCF targets [4]; [8]): 0.3
LGR5 expression (WNT-TCF targets [4]; [8]): 0.3
cMYC expression (WNT-TCF targets [4]; [8]): 0.1
ASCL2 expression (WNT-TCF targets [4]; [9]): 0.1
AXIN2 expression (WNT-TCF targets [4]; [9]): 0.6
LEF1 expression (WNT-TCF targets [4]; [9]): 0.4
LGR5 expression (WNT-TCF targets [4]; [9]): 0.7
cMYC expression (WNT-TCF targets [4]; [9]): 0.3
ASCL2 expression (WNT-TCF targets [4]; [10]): 0.1
AXIN2 expression (WNT-TCF targets [4]; [10]): 0.6
LEF1 expression (WNT-TCF targets [4]; [10]): 0.3
LGR5 expression (WNT-TCF targets [4]; [10]): 0.4
cMYC expression (WNT-TCF targets [4]; [10]): 0.3
AXIN2 expression (WNT-TCF targets [5]; 100 nM, Example 2 cells (CC14)): 0.7
LGR5 expression (WNT-TCF targets [5]; 100 nM, Example 2 cells (CC14)): 0.3
cMYC expression (WNT-TCF targets [5]; 100 nM, Example 2 cells (CC14)): 0.2
AXIN2 expression (WNT-TCF targets [5]; [11]): 0.9
LGR5 expression (WNT-TCF targets [5]; [11]): 1.0
AXIN2 expression (WNT-TCF targets [5]; [12]): 1.5
LGR5 expression (WNT-TCF targets [5]; [12]): 0.8
AXIN2 expression (WNT-TCF targets [5]; [13]): 0.7
LGR5 expression (WNT-TCF targets [5]; [13]): 0.1
AXIN2 expression (WNT-TCF targets [5]; [14]): 0.7
LGR5 expression (WNT-TCF targets [5]; [14]): 0.03
IC50 (DLD1 cells): < 1.25 µM
ASCL2 expression, TCF^VP16+ CAP2 / control + CAP2 (WNT-TCF targets [6]): 1.5
AXIN2 expression, TCF^VP16+ CAP2 / control + CAP2 (WNT-TCF targets [6]): 3.4
CDKN1A expression, TCF^VP16+ CAP2 / control + CAP2 (WNT-TCF targets [6]): 0.4
LGR5 expression, TCF^VP16+ CAP2 / control + CAP2 (WNT-TCF targets [6]): 1.4
cMYC expression, TCF^VP16+ CAP2 / control + CAP2 (WNT-TCF targets [6]): 0.8
